Source: ChEMBL document CHEMBL3046571, “QSAR of 2,4-diphenyl-1,3-oxazolines for ovicidal activity against the two-spotted spider mite Tetranychus urticae” (2006)

The molecules below were run on Tetranychus urticae (assay: Acaricidal activity against Tetranychus urticae (two-spotted spider mite) in compound treated kidney bean leaf assessed as mortality of egg at 24 degC measured after 1 week). Details: 168 h.
Format: functional

Compound	LC50 [µM]
Fc1ccc(C2COC(c3c(F)cccc3F)=N2)cc1F (stereo not given)	1.7
CC(C)Cc1ccc(C2COC(c3c(F)cccc3F)=N2)cc1 (stereo not given)	0.00159
CN(C)c1ccc(C2COC(c3c(F)cccc3F)=N2)cc1 (stereo not given)	166
CCOc1cccc(C2COC(c3c(F)cccc3F)=N2)c1 (stereo not given)	16.6
C[Si](C)(C)c1ccc(C2COC(c3c(F)cccc3F)=N2)cc1 (stereo not given)	0.00151
Fc1cccc(F)c1C1=NC(c2ccc(OC(F)(F)F)cc2)CO1 (stereo not given)	0.0144
CCCCCCc1ccc(C2COC(c3c(F)cccc3F)=N2)c(F)c1 (stereo not given)	0.00138
CCCCc1ccc(C2COC(c3c(F)cccc3F)=N2)cc1 (stereo not given)	0.00159
CCCCCCCCc1ccc(C2COC(c3c(F)cccc3F)=N2)c(Cl)c1 (stereo not given)	0.00123
CCOc1ccc(C2COC(c3c(F)cccc3F)=N2)cc1 (stereo not given)	0.0166
CS(=O)(=O)c1ccc(C2COC(c3c(F)cccc3F)=N2)cc1 (stereo not given)	1480
CCc1ccc(C2COC(c3c(F)cccc3F)=N2)c(F)c1 (stereo not given)	1.62
Cc1cc(Cl)ccc1C1COC(c2c(F)cccc2F)=N1 (stereo not given)	1.62
CCOc1ccccc1C1COC(c2c(F)cccc2F)=N1 (stereo not given)	166
CCCCCCCCCCCCCCCc1ccc(C2COC(c3c(F)cccc3F)=N2)cc1 (stereo not given)	0.0107
CCOc1cc(C(C)C)ccc1C1COC(c2c(F)cccc2F)=N1 (stereo not given)	0.145
CCCCCCCCOc1ccc(C2COC(c3c(F)cccc3F)=N2)cc1 (stereo not given)	0.00129
Fc1ccccc1C1COC(c2c(F)cccc2F)=N1 (stereo not given)	18.2
COc1cccc(C2COC(c3c(F)cccc3F)=N2)c1 (stereo not given)	17.4
Cc1cccc(C2COC(c3c(F)cccc3F)=N2)c1 (stereo not given)	182
Fc1cccc(F)c1C1=NC(c2ccc(Br)cc2)CO1 (stereo not given)	0.0148
COc1cc(C(C)(C)C)ccc1C1COC(c2c(F)cccc2F)=N1 (stereo not given)	0.0144
CCCCCCc1ccc(C2COC(c3c(F)cccc3F)=N2)cc1F (stereo not given)	1.38

Compound	LC50 [µM]
Fc1cccc(C2COC(c3c(F)cccc3F)=N2)c1 (stereo not given)	18.2
Fc1ccc(C2COC(c3c(F)cccc3F)=N2)cc1 (stereo not given)	1.82
CCCOc1cc(C(C)(C)C)ccc1C1COC(c2c(F)cccc2F)=N1 (stereo not given)	0.0135
Cc1ccc(C2COC(c3c(F)cccc3F)=N2)cc1 (stereo not given)	1.82
Fc1cc(C2COC(c3c(F)cccc3F)=N2)ccc1Cl (stereo not given)	0.162
CC(C)Cc1ccc(C2COC(c3c(F)cccc3F)=N2)c(Cl)c1 (stereo not given)	0.00145
C[S+]([O-])c1ccc(C2COC(c3c(F)cccc3F)=N2)cc1 (stereo not given)	155
Fc1cccc(F)c1C1=NC(c2cccc(Cl)c2)CO1 (stereo not given)	17
CC(C)Sc1ccc(C2COC(c3c(F)cccc3F)=N2)cc1 (stereo not given)	1.51
CCCCCCCCc1ccc(C2COC(c3c(F)cccc3F)=N2)c(OC)c1 (stereo not given)	0.126
Fc1ccc(C2COC(c3c(F)cccc3F)=N2)c(F)c1 (stereo not given)	0.17
CCc1ccccc1C1COC(c2c(F)cccc2F)=N1 (stereo not given)	17.4
CCCCCCCCCCc1ccc(C2COC(c3c(F)cccc3F)=N2)c(OC)c1 (stereo not given)	0.117
CCc1ccc(C2COC(c3c(F)cccc3F)=N2)cc1 (stereo not given)	0.0174
Fc1cc(Cl)ccc1C1COC(c2c(F)cccc2F)=N1 (stereo not given)	0.00162
CCc1cccc(C2COC(c3c(F)cccc3F)=N2)c1 (stereo not given)	174
Fc1ccc(C2COC(c3c(F)cccc3F)=N2)cc1Cl (stereo not given)	1.62
CC(C)Oc1ccc(C2COC(c3c(F)cccc3F)=N2)cc1 (stereo not given)	0.0158
COc1cc(F)ccc1C1COC(c2c(F)cccc2F)=N1 (stereo not given)	1.62
Cc1ccccc1C1COC(c2c(F)cccc2F)=N1 (stereo not given)	182
Cc1ccc(C2COC(c3c(F)cccc3F)=N2)cc1C (stereo not given)	17.4
CCCCCCCCCCCCCCOc1ccc(C2COC(c3c(F)cccc3F)=N2)cc1 (stereo not given)	0.107
CCCCCc1ccc(C2COC(c3c(F)cccc3F)=N2)c(OCCC)c1 (stereo not given)	0.0129

Compound	LC50 [µM]
CC(C)(C)c1ccc(C2COC(c3c(F)cccc3F)=N2)cc1 (stereo not given)	0.00159
Fc1cccc(F)c1C1=NC(c2ccc(OCC(F)(F)F)cc2)CO1 (stereo not given)	0.00141
Fc1cccc(F)c1C1=NC(c2ccc(C(F)(F)F)cc2)CO1 (stereo not given)	0.151
CCCCCCCCCCc1ccc(C2COC(c3c(F)cccc3F)=N2)c(Cl)c1 (stereo not given)	1.15
CCCCCCCCc1ccc(C2COC(c3c(F)cccc3F)=N2)c(C)c1 (stereo not given)	0.00129
Fc1cccc(F)c1C1=NC(c2ccc(Cl)cc2Cl)CO1 (stereo not given)	0.151
CCOc1cc(Cl)ccc1C1COC(c2c(F)cccc2F)=N1 (stereo not given)	1.48
Fc1ccc(C2COC(c3c(F)cccc3F)=N2)c(Cl)c1 (stereo not given)	1.62
CCCCCCc1ccc(C2COC(c3c(F)cccc3F)=N2)c(Cl)c1 (stereo not given)	0.00132
CCCCCCc1ccc(C2COC(c3c(F)cccc3F)=N2)cc1Cl (stereo not given)	1.32
CCCCCCCCCCCCc1ccc(C2COC(c3c(F)cccc3F)=N2)c(Cl)c1 (stereo not given)	1.07
CSc1ccc(C2COC(c3c(F)cccc3F)=N2)cc1 (stereo not given)	1.62
CCOc1cc(Br)ccc1C1COC(c2c(F)cccc2F)=N1 (stereo not given)	1.32
CCCCOc1cc(F)ccc1C1COC(c2c(F)cccc2F)=N1 (stereo not given)	0.00145
CCCCCCCCCCCCc1ccc(C2COC(c3c(F)cccc3F)=N2)c(F)c1 (stereo not given)	0.112
CCCCCCCCCCOc1ccc(C2COC(c3c(F)cccc3F)=N2)cc1 (stereo not given)	0.0012
CCCCCCCCc1ccc(C2COC(c3c(F)cccc3F)=N2)cc1 (stereo not given)	0.00135
CCCCCCCCc1ccc(C2COC(c3c(F)cccc3F)=N2)c(F)c1 (stereo not given)	0.00129
Oc1ccc(C2COC(c3c(F)cccc3F)=N2)cc1 (stereo not given)	182
Cc1ccc(C2COC(c3c(F)cccc3F)=N2)c(C)c1 (stereo not given)	174
CCCOc1cc(C(C)C)ccc1C1COC(c2c(F)cccc2F)=N1 (stereo not given)	0.00138
CCCCCc1ccc(C2COC(c3c(F)cccc3F)=N2)c(OCC)c1 (stereo not given)	0.00135
COc1ccccc1C1COC(c2c(F)cccc2F)=N1 (stereo not given)	174

Compound	LC50 [µM]
CCCCCCc1ccc(C2COC(c3c(F)cccc3F)=N2)cc1 (stereo not given)	0.00145
CCOc1cc(F)ccc1C1COC(c2c(F)cccc2F)=N1 (stereo not given)	0.0155
CCCCOc1cc(C(C)(C)C)ccc1C1COC(c2c(F)cccc2F)=N1 (stereo not given)	0.129
CCCCCCCCCCCCCOc1ccc(C2COC(c3c(F)cccc3F)=N2)cc1 (stereo not given)	0.011
COc1ccc(C2COC(c3c(F)cccc3F)=N2)cc1 (stereo not given)	17.4
COc1cc(Cl)ccc1C1COC(c2c(F)cccc2F)=N1 (stereo not given)	1.55
Fc1cccc(F)c1C1=NC(c2ccccc2Cl)CO1 (stereo not given)	1.7
CCCCCCCCCc1ccc(C2COC(c3c(F)cccc3F)=N2)c(OC)c1 (stereo not given)	0.012
CCCCCCCCCCc1ccc(C2COC(c3c(F)cccc3F)=N2)c(F)c1 (stereo not given)	0.012
CCCCOc1ccc(C2COC(c3c(F)cccc3F)=N2)cc1 (stereo not given)	0.00151
CCCCCCOc1cc(C(C)(C)C)ccc1C1COC(c2c(F)cccc2F)=N1 (stereo not given)	1.2
CCc1ccc(C2COC(c3c(F)cccc3F)=N2)c(Cl)c1 (stereo not given)	0.0155
CC(C)c1ccc(C2COC(c3c(F)cccc3F)=N2)cc1 (stereo not given)	0.0166
Fc1cccc(F)c1C1=NC(c2ccc(Cl)cc2)CO1 (stereo not given)	0.017
CCCCCCCCCSc1ccc(C2COC(c3c(F)cccc3F)=N2)cc1 (stereo not given)	0.12
CCCCCCCCCCc1ccc(C2COC(c3c(F)cccc3F)=N2)cc1 (stereo not given)	0.00126
CCCCCCCc1ccc(C2COC(c3c(F)cccc3F)=N2)c(F)c1 (stereo not given)	0.00132
Fc1cccc(F)c1C1=NC(c2ccccc2)CO1 (stereo not given)	19.5
CCOc1cc(C(C)(C)C)ccc1C1COC(c2c(F)cccc2F)=N1 (stereo not given) [ETOXAZOLE]	0.0138
CCCCCCCCCCCCc1ccc(C2COC(c3c(F)cccc3F)=N2)cc1 (stereo not given)	0.00118
Fc1cccc(F)c1C1=NC(c2ccc(Cl)c(Cl)c2)CO1 (stereo not given)	1.51
